Measured values taken from ChEMBL document CHEMBL2384946 (Bioorg Med Chem, 2013).

Columns and labels:
D(3) dopamine receptor [1] = molecular target: D(3) dopamine receptor (Rattus norvegicus, UniProt P19020); assay: Displacement of [3H]spiperone from rat cloned dopamine D3 receptor expressed in HEK293 cells after 1 hr; assay type: cell-based
D(2) dopamine receptor [2] = molecular target: T1, D(2) dopamine receptor (Homo sapiens, UniProt P14416); assay: Agonist activity at human dopamine D2L receptor expressed in CHO cells assessed as stimulation of [35S]GTPgammaS binding after 60 mins by scintillation counting analysis relative to dopamine; assay type: functional, cell-based
T1 sequence (P14416 whole entry): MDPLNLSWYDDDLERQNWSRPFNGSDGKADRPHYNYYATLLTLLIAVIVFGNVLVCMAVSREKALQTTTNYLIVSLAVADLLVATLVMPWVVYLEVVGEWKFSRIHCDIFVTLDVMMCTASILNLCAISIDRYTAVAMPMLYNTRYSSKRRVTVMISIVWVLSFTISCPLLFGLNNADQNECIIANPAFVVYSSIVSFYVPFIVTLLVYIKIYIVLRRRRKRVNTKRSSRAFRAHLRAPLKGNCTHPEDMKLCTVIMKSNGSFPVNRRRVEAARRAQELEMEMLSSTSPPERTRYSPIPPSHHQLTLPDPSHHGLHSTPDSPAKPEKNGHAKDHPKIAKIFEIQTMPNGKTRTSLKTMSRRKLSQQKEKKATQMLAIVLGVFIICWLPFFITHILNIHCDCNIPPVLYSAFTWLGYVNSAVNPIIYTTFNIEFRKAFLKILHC

D(2) dopamine receptor [3] = molecular target: D(2) dopamine receptor (Rattus norvegicus, UniProt P61169); assay: Displacement of [3H]spiperone from rat cloned dopamine D2L receptor expressed in HEK293 cells after 1 hr; assay type: cell-based
Sequence of D(2) dopamine receptor (Rattus norvegicus, UniProt P61169) (P61169 whole entry): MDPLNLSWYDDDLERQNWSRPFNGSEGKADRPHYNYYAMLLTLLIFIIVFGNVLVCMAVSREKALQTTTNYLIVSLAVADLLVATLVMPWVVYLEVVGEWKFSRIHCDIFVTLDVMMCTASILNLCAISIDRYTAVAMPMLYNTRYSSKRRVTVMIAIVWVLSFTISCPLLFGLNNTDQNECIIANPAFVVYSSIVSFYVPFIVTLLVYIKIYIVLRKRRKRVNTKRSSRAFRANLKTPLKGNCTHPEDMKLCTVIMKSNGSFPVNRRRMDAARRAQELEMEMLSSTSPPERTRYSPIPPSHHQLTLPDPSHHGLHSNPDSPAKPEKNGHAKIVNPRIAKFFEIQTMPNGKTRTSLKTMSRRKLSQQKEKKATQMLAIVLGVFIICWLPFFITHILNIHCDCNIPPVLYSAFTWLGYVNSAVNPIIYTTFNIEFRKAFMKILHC

D(3) dopamine receptor [4] = molecular target: D(3) dopamine receptor (Homo sapiens, UniProt P35462); assay: Agonist activity at human dopamine D3 receptor expressed in CHO cells assessed as stimulation of [35S]GTPgammaS binding after 60 mins by scintillation counting analysis; assay type: functional, cell-based
Sequence of D(3) dopamine receptor (Homo sapiens, UniProt P35462) (P35462 whole entry): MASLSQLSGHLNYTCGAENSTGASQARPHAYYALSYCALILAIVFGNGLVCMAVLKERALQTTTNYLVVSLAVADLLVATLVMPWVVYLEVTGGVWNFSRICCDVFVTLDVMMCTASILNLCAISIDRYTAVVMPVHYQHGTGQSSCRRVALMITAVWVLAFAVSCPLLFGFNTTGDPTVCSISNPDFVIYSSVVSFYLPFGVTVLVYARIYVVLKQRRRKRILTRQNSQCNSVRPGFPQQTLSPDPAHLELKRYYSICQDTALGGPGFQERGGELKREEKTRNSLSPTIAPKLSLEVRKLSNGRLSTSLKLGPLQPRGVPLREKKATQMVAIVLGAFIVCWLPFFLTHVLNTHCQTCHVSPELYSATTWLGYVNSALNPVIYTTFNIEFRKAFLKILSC

Rattus norvegicus = organism: Rattus norvegicus; assay: Selectivity ratio of Ki for rat cloned dopamine D2L receptor to Ki for rat cloned dopamine D3 receptor
D(2) dopamine receptor [5] = molecular target: T1, D(2) dopamine receptor; assay: Agonist activity at human dopamine D2L receptor expressed in CHO cells assessed as stimulation of [35S]GTPgammaS binding after 60 mins by scintillation counting analysis; assay type: functional, cell-based

Sequence of D(3) dopamine receptor (Rattus norvegicus, UniProt P19020) (P19020 whole entry): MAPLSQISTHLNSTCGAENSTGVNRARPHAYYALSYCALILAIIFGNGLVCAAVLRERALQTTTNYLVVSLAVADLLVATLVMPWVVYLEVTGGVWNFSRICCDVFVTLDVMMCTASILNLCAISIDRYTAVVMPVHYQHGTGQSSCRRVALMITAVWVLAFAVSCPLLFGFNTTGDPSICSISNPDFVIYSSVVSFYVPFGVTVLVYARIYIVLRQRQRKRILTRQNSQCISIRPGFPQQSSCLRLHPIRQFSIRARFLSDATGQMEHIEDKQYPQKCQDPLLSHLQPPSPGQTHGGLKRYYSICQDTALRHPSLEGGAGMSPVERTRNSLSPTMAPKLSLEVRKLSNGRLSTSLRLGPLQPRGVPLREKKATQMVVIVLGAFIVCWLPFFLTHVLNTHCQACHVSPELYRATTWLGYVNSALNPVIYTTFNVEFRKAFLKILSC

| SMILES | Ki (D(3) dopamine receptor [1]) [nM] | Emax (D(2) dopamine receptor [2]) [%] | Ki (D(2) dopamine receptor [3]) [nM] | EC50 (D(3) dopamine receptor [4]; read-out: EC50) [nM] | Ratio Ki (Rattus norvegicus) | EC50 (D(2) dopamine receptor [5]; cho) | EC50 (D(3) dopamine receptor [4]; cho) | EC50 (D(2) dopamine receptor [5]; read-out: EC50) [nM] |
| --- | --- | --- | --- | --- | --- | --- | --- | --- |
| CCCN(CCN1CCN(C(=O)c2cc3ccccc3[nH]2)CC1)C1CCc2nc(N)sc2C1 (centres undefined) | 1.84 | 101 | 1070 | 0.26 |  |  |  |  |
| CCCN(CCN1CCN(c2ccccc2)CC1)[C@H]1CCc2ccc(N)cc2C1 | 45.5 |  | 2710 |  |  |  |  |  |
| CCCN(CCN1CCN(c2ccccc2OC)CC1)C1CCc2cc3[nH]cnc3cc2C1 (centres undefined) | 19.7 |  | 443 |  | 22.5 |  |  |  |
| CCCN(CCN1CCN(c2ccccc2)CC1)C1CCc2ccc(NS(=O)(=O)c3ccc(C)cc3)cc2C1 (centres undefined) | 3.69 |  | 39.2 |  | 10.6 |  |  |  |
| CCCN(CCN1CCN(c2ccccc2)CC1)C1CCc2cc3[nH]c(N)nc3cc2C1 (centres undefined) |  |  |  |  | 8.89 |  |  |  |
| CCCN(CCN1CCN(c2ccccc2)CC1)[C@@H]1CCc2ccc(NS(=O)(=O)c3ccc(OC)cc3)cc2C1 | 2.32 |  | 101 |  |  | Not Active | Not Active |  |
| CCCN(CCN1CCN(c2nccc3ccccc23)CC1)[C@H]1CCc2nc(N)sc2C1 |  |  |  |  | 121 |  |  |  |
| CCCN(CCN1CCN(c2ccccc2)CC1)C1CCc2cc3cc[nH]c3cc2C1 (centres undefined) | 10.7 |  | 127 |  | 11.9 |  |  |  |
| CCCN(CCN1CCN(c2ccccc2)CC1)[C@H]1CCc2c(cccc2OS(=O)(=O)c2ccc(C)cc2)C1 | 32 |  | 632 |  | 19.8 |  |  |  |
| CCCN(CCN1CCN(c2ccccc2)CC1)C1CCc2ccc(N)cc2C1 (racemic) | 22.2 |  | 638 |  |  |  |  |  |
| CCCN(CCN1CCN(c2ccccc2)CC1)[C@@H]1CCc2ccc(N)cc2C1 | 20.2 | 36.8 | 601 | 30.3 |  |  |  | 179 |
| CCCN(CCN1CCN(c2ccccc2)CC1)C1CCc2ccc(NS(=O)(=O)c3ccc(Cl)cc3)cc2C1 (centres undefined) | 4.13 |  | 72.4 |  | 17.5 |  |  |  |
| CCCN(CCN1CCN(c2ccccc2)CC1)C1CCc2ccc(NS(=O)(=O)c3ccc(OC)cc3)cc2C1 (racemic) | 2.22 |  | 64.9 |  |  |  |  |  |
| CCCN(CCN1CCN(c2ccccc2)CC1)C1CCc2ccc3nc[nH]c3c2C1 (centres undefined) | 54.1 |  | 520 |  | 9.61 |  |  |  |
| CCCN(CCN1CCN(c2ccccc2)CC1)C1CCc2ccc(NC(=O)c3ccccc3)cc2C1 (centres undefined) | 109 |  | 624 |  | 5.72 |  |  |  |
| CCCN(CCN1CCN(c2ccccc2)CC1)[C@@H]1CCc2ccc(OS(=O)(=O)c3ccc(OC)cc3)cc2C1 | 26.9 |  | 1080 |  | 40 |  |  |  |
| CCCN(CCN1CCN(c2ccccc2OC)CC1)C1CCc2cc3[nH]c(=O)[nH]c3cc2C1 (centres undefined) | 195 |  | 417 |  | 2.14 |  |  |  |
| CCCN(CCN1CCN(c2ccccc2OC)CC1)C1CCc2cc3[nH]c(=S)[nH]c3cc2C1 (centres undefined) | 112 |  | 230 |  | 2.05 |  |  |  |
| CCCN(CCN1CCN(c2ccccc2)CC1)[C@H]1CCc2c(cccc2OS(=O)(=O)c2ccc(OC)cc2)C1 | 17.6 |  | 497 |  |  | Not Active | Not Active |  |
| CCCN(CCN1CCN(c2ccccc2)CC1)C1CCc2ccc(NC(C)=O)cc2C1 (centres undefined) | 174 |  | 1300 |  | 7.44 |  |  |  |
| CCCN(CCN1CCN(c2ccccc2)CC1)C1CCc2ccc(NS(=O)(=O)c3ccc(C(F)(F)F)cc3)cc2C1 (centres undefined) | 8.64 |  | 91.2 |  | 10.6 |  |  |  |
| CCCN(CCN1CCN(c2ccccc2)CC1)C1CCc2cc3[nH]cnc3cc2C1 (centres undefined) | 60 |  | 1280 |  | 21.3 |  |  |  |
